Results published in patent US20250287945A1, “COMPOSITIONS FOR FUNGAL CONTROL AND RELATED METHODS” (priority 2021, published 2025).
“And” between values parts separate entries of the source, which are not always exact repeats. Identical values can stand only once. Like-named read-outs stand apart in the source and are kept apart here.

Assays:
[1] = test system: Botrytis cinarea (strain CBS 261.71); experiment: Botrytis viability colorimetric assay (PrestoBlue resazurin); type: cell-based, Botrytis cinerea; settings: 375 micromolar
[2] = test system: Nicotiana benthamiana leaves; experiment: Phytotoxicity at the treatment site on detached leaves; type: in vivo; settings: 275 micromolar in 50% ethanol, 100 microliters on leaf quadrant
[3] = test system: Fusarium conidial suspension; experiment: Fusarium viability colorimetric assay (PrestoBlue resazurin); type: cell-based
Protocol: A Fusarium conidial suspension was prepared from a 7-day culture of Fusarium biomass grown on potato dextrose agar for 7 days, and quantified by hemocytometer, as described in Example 4. Solutions of fenpiclonil (Millipore Sigma, Cat. no. 36532) and of the individual peptides were prepared in 50% (w/v) ethanol in water, and tested using a PrestoBlue™ (resazurin) viability colorimetric assay as described in Example 4.
The Fusarium conidial suspension, peptide or control treatment solution, and potato dextrose broth (Alpha Biosciences, catalogue no. P16-126) were added to each well of a 96-well plate to obtain the desired treatment concentration and 1×10^6 conidia/mL in a final volume of 150 microliters per well. The plates were covered and incubated at 30° C. for 18 hours and 200 rpm. Fifteen microliters of PrestoBlue™ Cell Viability Reagent (Thermofisher Scientific, Cat no. A13262) were added to each well, and the plate was further incubated before measuring fluorescence at 590 nm emission with excitation at 560 nm using a spectrophotometer (BioTek Synergy H1 Microplate Reader, Fischer Scientific, Cat. no. 11-120-533).

[4] = test system: Rhizomucor miehei CBS 147454; experiment: Micro broth dilution assay in 96-well plates; type: cell-based; settings: 3 days of incubation; 375 micromolar or 187.5 micromolar; preliminary
[5] = test system: Fusarium oxysporum CBS 130311; experiment: Micro broth dilution assay in 96-well plates; type: cell-based; settings: 3 days of incubation; 375 micromolar or 187.5 micromolar; preliminary
Botrytis cinerea = experiment: Fungal lesion size on detached Nicotiana benthamiana leaves after topical treatment; type: in vivo, Botrytis cinerea on Nicotiana benthamiana leaves
Protocol: In one experiment, leaves of similar age were cut from healthy Nicotiana benthamiana plants and the petioles set into plates containing water agar. Leaves were visually divided into quadrants. […] The plates were covered and placed in a humidified secondary container and incubated in a growth chamber under a 14-hour light (20 degrees C.): 10-hour dark (18 degrees C.) cycle. After 11 days, fungal lesions on leaves were photographed and measured manually with a ruler. Leaves were then destained in 70% ethanol for 48 hours with a change of ethanol at 24 hours, rehydrated in water for at least 1 hour, photographed, and the area of the fungal lesions quantified using ImageJ software (see imagej[dot]nih[dot]gov/ij/). […] The leaf quadrants inoculated with B. cinerea and treated with 100 microliters of treatment solution (MES buffer or HH38 in MES buffer) had comparatively larger areas wetted with liquid. All of the leaf quadrants treated with 5 mM MES buffer developed large (average 1.72 cm width) fungal lesions characterized by grey-black fungal growth. […] […] Twenty microliters of a given treatment mixture were pipetted onto a leaf quadrant (3 replicate leaves per treatment for a total of 12 quadrants). After 7 days incubation in a growth chamber, leaves were photographed, destained in 70% ethanol, photographed again, and the area of the fungal lesions quantified using ImageJ software. […] The fungal lesions in the HH38 treatment were also observed to be 39% smaller than in the 2% DMSO treatment, and 19% smaller than in the 5 mM MES treatment, although not to a statistically significant degree using an unpaired t test.

[6] = test system: Aspergillus flavus DSM 1959; experiment: Micro broth dilution assay in 96-well plates; type: cell-based; settings: 3 days of incubation; 375 micromolar or 187.5 micromolar; preliminary
[7] = test system: Mucor circinelloides f. janssenii CBS 204.68; experiment: Micro broth dilution assay in 96-well plates; type: cell-based; settings: 3 days of incubation; 375 micromolar or 187.5 micromolar; preliminary
[8] = test system: conidia of Fusarium proliferatum; experiment: oCelloScope live-cell imaging of fungal growth (SESA algorithm); type: cell-based
[9] = test system: Cryptococcus neoformans DSM 70219; experiment: Micro broth dilution assay in 96-well plates; type: cell-based; settings: 2 days of incubation; 375 micromolar; preliminary
[10] = test system: Aspergillus fumigatus CBS 120.53; experiment: Micro broth dilution assay in 96-well plates; type: cell-based; settings: 3 days of incubation; 375 micromolar or 187.5 micromolar; preliminary
Phytophthora infestans = type: cell-based; settings: 7 days incubation; modified RPMI medium, 25 degrees Celsius; concentration not given
Fusarium culmorum = type: cell-based
Fusarium graminearum = type: cell-based; settings: 22 hours incubation; modified RPMI medium, 25 degrees Celsius; concentration not given
Zymoseptoria tritici = type: cell-based
[11] = first experiment, 275 micromolar HH38 in 5 mM MES buffer, after 11 days, lesion area by ImageJ, replicate leaves 1-3
[12] = first experiment, 275 micromolar HH38 in 5 mM MES buffer, after 11 days, ruler, replicate leaves 1-3
[13] = second experiment, inoculum pre-mixed with HH38, 7 days, ImageJ area, not statistically significant

## N#Cc1c[nH]cc1-c1cccc(Cl)c1Cl [Fenpiclonil, 4-(2,3-dichlorophenyl)-1H-pyrrole-3-carbonitrile, reference compound]
[1]; Botrytis, CBS261, four replicates, read-out: Percent Inhibition (Botrytis), Mean
  inhibition at 375 µM: 75.8%
[2]
  phytotoxicity (tissue necrosis at the treatment site): phytotoxic
[3]; Experiment 4, four replicates, protocol and peptides as third experiment (175 and 375 micromolar), concentration not given
  Percent Inhibition (Fusarium), Experiment 4, Mean: 82.25%
[3]; Experiment 5, four replicates, protocol and peptides as third experiment (175 and 375 micromolar), concentration not given
  Percent Inhibition (Fusarium), Experiment 5, Mean: 79.19%

## WHWLQLKPGQPMYGGGGSWHWLQLKPGQPMY (listed as Saccharomyces cerevisiae) [SEQ ID NO: 2189, Saccharomyces cerevisiae alpha pheromone homodimer including glycine linker]
[4]
  inhibition of growth / growth pattern: sometimes induced changes in growth pattern
[5]
  inhibition of growth / growth pattern: sometimes induced changes in growth pattern
Botrytis cinerea; first experiment, 275 micromolar HH38 in 5 mM MES buffer, 100 microliters per inoculated leaf quadrant, after 11 days, measured with a ruler, replicate leaves 1-3
  Lesion 1 (cm): 0 cm
Botrytis cinerea; first experiment, 275 micromolar HH38 in 5 mM MES buffer, after 11 days, destained leaves, lesion area by ImageJ, replicate leaves 1-3
  Lesion 1 (pixels): 0 pixels
Botrytis cinerea; first experiment, 275 micromolar HH38 in 5 mM MES buffer, after 11 days, lesion area by ImageJ, average of 3 leaves
  Treatment Average (pixels): 157 pixels
Botrytis cinerea; first experiment, 275 micromolar HH38 in 5 mM MES buffer, after 11 days, lesion area by ImageJ, average of 4 quadrants
  Replicate Averages (pixels): 0.00 pixels (2×) and 472 pixels
Botrytis cinerea; [11]
  Lesion 2 (pixels): 0 pixels (2×) and 1889 pixels
  Lesion 3 (pixels): 0 pixels
  Lesion 4 (pixels): 0 pixels
Botrytis cinerea; first experiment, 275 micromolar HH38 in 5 mM MES buffer, after 11 days, ruler, average of 3 leaves
  Treatment Average (cm): 0.042 cm
Botrytis cinerea; first experiment, 275 micromolar HH38 in 5 mM MES buffer, after 11 days, ruler, average of 4 quadrants
  Average (cm) per replicate leaf: 0 cm (2×) and 0.12 cm
Botrytis cinerea; [12]
  Lesion 2 (cm): 0 cm (2×) and 0.5 cm
  Lesion 3 (cm): 0 cm
  Lesion 4 (cm): 0 cm
Botrytis cinerea; first experiment, result sentence prints 375 micromolar HH38 (method: 275 micromolar), after 11 days
  leaf quadrants that developed any measurable fungal lesion: 1 out of 12
Botrytis cinerea; [13]
  fungal lesions smaller than in the 5 mM MES treatment: 19%
  fungal lesions smaller than in the 2% DMSO treatment: 39%
Botrytis cinerea; second experiment, inoculum pre-mixed with in 2% DMSO in 5 mM MES buffer, 7 days, ImageJ area, statistically significant (unpaired t test)
  fungal lesions smaller than the untreated (diluted grape juice) control: 44%
[6]
  inhibition of growth / growth pattern: sometimes induced changes in growth pattern
[1]
  Botrytis cell viability versus untreated / 50% ethanol carrier: reducing Botrytis cell viability as well as did the fenpiclonil treatment
[1]; four replicates
  Percent Inhibition (Botrytis), Mean: 79.77%
[1]; sentence prints Fusarium in the Botrytis assay
  viability decrease relative to that obtained with the positive control (fenpiclonil): roughly about two-thirds of the viability decrease obtained using the positive control
[7]
  inhibition of growth / growth pattern: sometimes induced changes in growth pattern
[8]
  statistical significance of antifungal activity: statistically significant antifungal activity
[9]
  growth / growth pattern: change this species' growth pattern
[10]
  inhibition of growth / growth pattern: sometimes induced changes in growth pattern
[3]
  Percent Inhibition (Fusarium), Experiment 5, Mean: 79.77%

## WHWLQLKPGQPMYRRRRRRRR [SEQ ID NO: 2240]
Phytophthora infestans
  inhibition relative to a control: ≥ 50%
Fusarium culmorum
  inhibition relative to a control: ≥ 50%
Fusarium graminearum
  inhibition relative to a control: ≥ 50%
Zymoseptoria tritici
  inhibition relative to a control: ≥ 50%
